Structures are written as SMILES.

Data on five compounds can be found in the supplement of paper PMC10307832.

The test system of one assay is H3255. As to the kind of experiment: relative viability (nuclei count vs DMSO), 5 days (fraction); higher = more cells survive. The settings on record: first compound 8 µM. An outline of the steps: (§1)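 Relative viability is defined as nuclei in treated wells over nuclei in vehicle wells. Duplicate plates were run and medians reported. Lung cancer cell lines in 1536-well plates were dosed by pin tool one day after seeding, with one drug or with a fixed anchor-drug dose plus five library-drug doses (not always all listed) in √10 steps, and nuclei were counted after 5 days.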
Take `CCCCCCCCCCCC1=C(O)C(=O)C=C(O)C1=O` [Embelin] + O=C(c1cc(Cc2n[nH]c(=O)c3ccccc23)ccc1F)N1CCN(C(=O)C2CC2)CC1 [Olaparib] (partner 8 µM): the relative viability stood at 0.546.
Regarding `CCCCCCCCCCCC1=C(O)C(=O)C=C(O)C1=O` [Embelin] + CC(=O)Nc1cccc(-n2c(=O)n(C3CC3)c(=O)c3c(Nc4ccc(I)cc4F)n(C)c(=O)c(C)c32)c1 [Trametinib] (partner 0.02 µM), the relative viability worked out at 0.647.
On the same count and under the same terms, in the case of `CCCCCCCCCCCC1=C(O)C(=O)C=C(O)C1=O` [Embelin] + Nc1ncn([C@H]2C[C@H](O)[C@@H](CO)O2)c(=O)n1 [Decitabine] (partner 2 µM) it was 0.656; in that of `CCCCCCCCCCCC1=C(O)C(=O)C=C(O)C1=O` [Embelin] + NC(=O)Nc1cc(-c2cccc(F)c2)sc1C(=O)N[C@H]1CCCNC1 [AZD7762] (partner 0.2 µM), 0.913.

In the next assay the test system is HARA. The description is as above. The settings on record: first compound 0.08 µM. In a few lines:
as §1
Compound `CCCCCCCCCCCC1=C(O)C(=O)C=C(O)C1=O` [Embelin] + N=C(N)NC(=N)NCCc1ccccc1 [Phenformin] (partner 250 µM) showed a relative viability of 0.438.
Take `CCCCCCCCCCCC1=C(O)C(=O)C=C(O)C1=O` [Embelin] + O=C(c1cc(Cc2n[nH]c(=O)c3ccccc23)ccc1F)N1CCN(C(=O)C2CC2)CC1 [Olaparib] (partner 8 µM): the relative viability was 0.85.
As to `CCCCCCCCCCCC1=C(O)C(=O)C=C(O)C1=O` [Embelin] + CC(=O)Nc1cccc(-n2c(=O)n(C3CC3)c(=O)c3c(Nc4ccc(I)cc4F)n(C)c(=O)c(C)c32)c1 [Trametinib] (partner 0.02 µM), the relative viability is 0.785.
Consider `CCCCCCCCCCCC1=C(O)C(=O)C=C(O)C1=O` [Embelin] + Nc1ncn([C@H]2C[C@H](O)[C@@H](CO)O2)c(=O)n1 [Decitabine] (partner 2 µM), for which the relative viability is 0.51.
Compound `CCCCCCCCCCCC1=C(O)C(=O)C=C(O)C1=O` [Embelin] + NC(=O)Nc1cc(-c2cccc(F)c2)sc1C(=O)N[C@H]1CCCNC1 [AZD7762] (partner 0.2 µM) came in with a relative viability of 0.37.

The same assay, now with this note: first compound 0.8 µM.
As to `CCCCCCCCCCCC1=C(O)C(=O)C=C(O)C1=O` [Embelin] + N=C(N)NC(=N)NCCc1ccccc1 [Phenformin] (partner 250 µM), the relative viability was determined as 0.56.
On to `CCCCCCCCCCCC1=C(O)C(=O)C=C(O)C1=O` [Embelin] + O=C(c1cc(Cc2n[nH]c(=O)c3ccccc23)ccc1F)N1CCN(C(=O)C2CC2)CC1 [Olaparib] (partner 8 µM), for which the relative viability was 0.734.
As for `CCCCCCCCCCCC1=C(O)C(=O)C=C(O)C1=O` [Embelin] + CC(=O)Nc1cccc(-n2c(=O)n(C3CC3)c(=O)c3c(Nc4ccc(I)cc4F)n(C)c(=O)c(C)c32)c1 [Trametinib] (partner 0.02 µM), the relative viability was 1.05.
`CCCCCCCCCCCC1=C(O)C(=O)C=C(O)C1=O` [Embelin] + Nc1ncn([C@H]2C[C@H](O)[C@@H](CO)O2)c(=O)n1 [Decitabine] (partner 2 µM): the relative viability was determined as 0.549.
As to `CCCCCCCCCCCC1=C(O)C(=O)C=C(O)C1=O` [Embelin] + NC(=O)Nc1cc(-c2cccc(F)c2)sc1C(=O)N[C@H]1CCCNC1 [AZD7762] (partner 0.2 µM), the relative viability was found to be 0.455.

Staying with this assay, now noted: first compound 2.53 µM.
Compound `CCCCCCCCCCCC1=C(O)C(=O)C=C(O)C1=O` [Embelin] + N=C(N)NC(=N)NCCc1ccccc1 [Phenformin] (partner 250 µM) displayed a relative viability of 0.497.
On the same count and under the same terms, as for `CCCCCCCCCCCC1=C(O)C(=O)C=C(O)C1=O` [Embelin] + O=C(c1cc(Cc2n[nH]c(=O)c3ccccc23)ccc1F)N1CCN(C(=O)C2CC2)CC1 [Olaparib] (partner 8 µM), the figure is 1.12; as for `CCCCCCCCCCCC1=C(O)C(=O)C=C(O)C1=O` [Embelin] + CC(=O)Nc1cccc(-n2c(=O)n(C3CC3)c(=O)c3c(Nc4ccc(I)cc4F)n(C)c(=O)c(C)c32)c1 [Trametinib] (partner 0.02 µM), 0.637.
`CCCCCCCCCCCC1=C(O)C(=O)C=C(O)C1=O` [Embelin] + Nc1ncn([C@H]2C[C@H](O)[C@@H](CO)O2)c(=O)n1 [Decitabine] (partner 2 µM) registered a relative viability of 0.587.
`CCCCCCCCCCCC1=C(O)C(=O)C=C(O)C1=O` [Embelin] + NC(=O)Nc1cc(-c2cccc(F)c2)sc1C(=O)N[C@H]1CCCNC1 [AZD7762] (partner 0.2 µM) gave a relative viability of 0.52.

The same assay, now with this note: first compound 8 µM.
`CCCCCCCCCCCC1=C(O)C(=O)C=C(O)C1=O` [Embelin] + N=C(N)NC(=N)NCCc1ccccc1 [Phenformin] (partner 250 µM) came in with a relative viability of 0.455.
The compound `CCCCCCCCCCCC1=C(O)C(=O)C=C(O)C1=O` [Embelin] + O=C(c1cc(Cc2n[nH]c(=O)c3ccccc23)ccc1F)N1CCN(C(=O)C2CC2)CC1 [Olaparib] (partner 8 µM) gave a relative viability of 0.763.
Still for that read-out and setting: in the case of `CCCCCCCCCCCC1=C(O)C(=O)C=C(O)C1=O` [Embelin] + CC(=O)Nc1cccc(-n2c(=O)n(C3CC3)c(=O)c3c(Nc4ccc(I)cc4F)n(C)c(=O)c(C)c32)c1 [Trametinib] (partner 0.02 µM) it was 0.536.
Compound `CCCCCCCCCCCC1=C(O)C(=O)C=C(O)C1=O` [Embelin] + Nc1ncn([C@H]2C[C@H](O)[C@@H](CO)O2)c(=O)n1 [Decitabine] (partner 2 µM) showed a relative viability of 0.573.
In the case of `CCCCCCCCCCCC1=C(O)C(=O)C=C(O)C1=O` [Embelin] + NC(=O)Nc1cc(-c2cccc(F)c2)sc1C(=O)N[C@H]1CCCNC1 [AZD7762] (partner 0.2 µM), the relative viability is 0.362.

Another assay deals with HCC-15. The assay is described as above. The settings on record: first compound 0.08 µM. An outline of the steps: as §1
Regarding `CCCCCCCCCCCC1=C(O)C(=O)C=C(O)C1=O` [Embelin] + N=C(N)NC(=N)NCCc1ccccc1 [Phenformin] (partner 250 µM), the relative viability came to 0.477.
As to `CCCCCCCCCCCC1=C(O)C(=O)C=C(O)C1=O` [Embelin] + O=C(c1cc(Cc2n[nH]c(=O)c3ccccc23)ccc1F)N1CCN(C(=O)C2CC2)CC1 [Olaparib] (partner 8 µM), the relative viability amounted to 0.689.
The same measure, in the same setting: in the case of `CCCCCCCCCCCC1=C(O)C(=O)C=C(O)C1=O` [Embelin] + CC(=O)Nc1cccc(-n2c(=O)n(C3CC3)c(=O)c3c(Nc4ccc(I)cc4F)n(C)c(=O)c(C)c32)c1 [Trametinib] (partner 0.02 µM) it was 0.366; in that of `CCCCCCCCCCCC1=C(O)C(=O)C=C(O)C1=O` [Embelin] + Nc1ncn([C@H]2C[C@H](O)[C@@H](CO)O2)c(=O)n1 [Decitabine] (partner 2 µM), 0.619; in that of `CCCCCCCCCCCC1=C(O)C(=O)C=C(O)C1=O` [Embelin] + NC(=O)Nc1cc(-c2cccc(F)c2)sc1C(=O)N[C@H]1CCCNC1 [AZD7762] (partner 0.2 µM), 1.14.

Still in this assay, the particulars now being: first compound 0.8 µM.
`CCCCCCCCCCCC1=C(O)C(=O)C=C(O)C1=O` [Embelin] + N=C(N)NC(=N)NCCc1ccccc1 [Phenformin] (partner 250 µM): the relative viability was 0.504.
